{
  "source": "patent US20220152045A1",
  "about": "(priority 2012, published 2022)",
  "key": {"[1]": {"test_system": "surgery patients at the age of 20 or older and younger than 65", "details": "in vivo"}, "[2]": {"test_system": "surgery patients at the age of 65 or older", "details": "in vivo"}, "patients": {"test_system": "patients", "experiment": "Clinical trials of the Examples taken together (85 cases of patients in total)", "details": "dosing regimen of the invention, amount per kg equal to or more than in the preceding animal tests"}, "[3]": {"test_system": "surgery patients at the age of 20 or older and younger than 65", "details": "in vivo", "remark": "listed apart in the source"}, "[4]": {"test_system": "non-human animal (for example, a monkey)", "experiment": "Continuous intravenous administration to a non-human animal, vasostimulant", "assay_type": "in vivo", "details": "continuous i.v. 1 mg/kg/h to 2 mg/kg/h for several hours (4 to 6 hours), in the neighborhood of an effective dose", "excerpt": "It can be said that this is an astonishingly excellent effect provided by the dosing regimen of the invention."}, "[5]": {"test_system": "surgery patients at the age of 65 or older", "details": "in vivo", "remark": "listed apart in the source"}},
  "note": "Read-outs that look alike come from different tables or passages of the source.",
  "data": [
    {"compound": "COC(=O)CC[C@@H]1N=C(c2ccccn2)c2cc(Br)ccc2-n2c(C)cnc21.O=S(=O)(O)c1ccccc1", "note": "[Compound B, Methyl 3-[(4S)-8-bromo-1-methyl-6-(2-pyridinyl)-4H-imidazo[1,2-a][1,4]benzodiazepin-4-yl]propanoate benzenesulfonate]", "values": [
      {"measurement": "Other side effects to be concerned or abnormal laboratory data", "setting": "[1]", "result": "not observed"},
      {"measurement": "Number of test subjects who developed hypotension, adverse event", "setting": "[2]; human", "result": 3, "unit": "Patients"},
      {"measurement": "Proportion of test subjects who developed hypotension as a side effect", "setting": "[2]; human", "result": 20, "unit": "%"},
      {"measurement": "Average time until the patient opened eyes", "setting": "[2]", "result": 10.9, "unit": "min"},
      {"measurement": "Average time until the patient stated the date of birth", "setting": "[2]", "result": 18.5, "unit": "min"},
      {"measurement": "Average time until the patient were allowed to leave the surgery room", "setting": "[2]", "result": 19.1, "unit": "min"},
      {"measurement": "Average time until the trachea was extubated", "setting": "[2]", "result": 13.6, "unit": "min"},
      {"measurement": "Other side effects to be concerned or abnormal laboratory data", "setting": "[2]", "result": "not observed"},
      {"measurement": "Recollection during anesthesia", "setting": "[2]; 1 mg/kg", "result": "no recollection"},
      {"measurement": "Salvage treatment for sedation during surgery", "setting": "[2]; 1 mg/kg", "result": "without performing a salvage treatment"},
      {"measurement": "Signs of awakening during the surgery", "setting": "[2]; 1 mg/kg", "result": "not observed"},
      {"measurement": "Completion rate of endotracheal intubation", "setting": "[2]; 4 mg/kg", "result": 100, "unit": "%"},
      {"measurement": "Time until loss of consciousness (range of actual values)", "setting": "[2]; 4 mg/kg", "result": "(70-135) sec"},
      {"measurement": "Vasostimulant", "setting": "patients", "result": "does not cause the vasostimulant"},
      {"measurement": "Number of test subjects who developed hypotension, adverse event", "setting": "[3]; human", "result": 3, "unit": "patients"},
      {"measurement": "Proportion of test subjects who developed hypotension as a side effect", "setting": "[3]; human", "result": 10, "unit": "%"},
      {"measurement": "Average time until the patient opened eyes", "setting": "[3]", "result": 13.9, "unit": "min"},
      {"measurement": "Average time until the patient stated the date of birth", "setting": "[3]", "result": 21.5, "unit": "min"},
      {"measurement": "Average time until the patient were allowed to leave the surgery room", "setting": "[3]", "result": 25.5, "unit": "min"},
      {"measurement": "Average time until the trachea was extubated", "setting": "[3]", "result": 16.4, "unit": "min"},
      {"measurement": "Other side effects to be concerned or abnormal laboratory data", "setting": "[3]", "result": "not observed"},
      {"measurement": "Recollection during anesthesia", "setting": "[3]; 1 mg/kg", "result": "no recollection"},
      {"measurement": "Salvage treatment for sedation during surgery", "setting": "[3]; 1 mg/kg", "result": "without performing a salvage treatment"},
      {"measurement": "Signs of awakening during the surgery", "setting": "[3]; 1 mg/kg", "result": "not observed"},
      {"measurement": "Completion rate of endotracheal intubation", "setting": "[3]; 12 mg/kg", "result": 100, "unit": "%"},
      {"measurement": "Time until loss of consciousness (range of actual values)", "setting": "[3]; 12 mg/kg", "result": "(48-120) sec"},
      {"measurement": "Vasostimulant", "setting": "[4]", "result": "vasostimulant is observed"},
      {"measurement": "Completion rate of endotracheal intubation", "setting": "[5]", "result": 100, "unit": "%"},
      {"measurement": "Other side effects to be concerned or abnormal laboratory data", "setting": "[5]", "result": "not observed"}
    ]}
  ]
}
